Assay results: paper PMC7772889, “Integrating biokinetics and in vitro studies to evaluate developmental neurotoxicity induced by chlorpyrifos in human iPSC-derived neural stem cells undergoing differentiation towards neuronal and glial cells” (Reproductive Toxicology (Elmsford, N.y.), 2020)

Tests used:
[1] = system: hiPSC-derived NSCs undergoing differentiation towards neurons and astrocytes; assay: In vitro biokinetics of CPF and metabolites in medium, cells and plastic (HPLC-UV)
Experimental: The nominal concentration causing 5 % decrease of viability (IC5) was previously identified, extrapolating a dose response curves obtained with six CPF nominal concentrations (0.49, 1.95, 7.81, 31.25, 125, and 500 μM) vs solvent control (0.1 % DMSO) after 14-day treatment by means of resazurin test (CellTiter-Blue® Reagent).
CPF stock solutions were prepared in DMSO and stored in glass at −20 °C until the beginning of each experiment. Freshly prepared treatment solutions were obtained after the dilution of stock solutions in a ratio of […] in serum-free culture medium, keeping DMSO concentration at 0.1 %. Aliquots of the stock and daily treatment solutions (considered as the starting solutions) were stored at −80 °C until HPLC analysis.
Cells (about 21,000 cells/cm^2), seeded on 6 well PDL- and reduced growth factor Matrigel coated plates, were treated during the differentiation process, starting from day 7 of differentiation up to day 21, with treatment/medium refreshed twice a week (Fig. 2). Exposure to CPF of cells or pre-coated wells (without cells) was initiated by adding 2 mL per well of the corresponding treatment solutions or the vehicle (control wells). Four biological replicates were carried out.
A first set of experiments was used to fine tune the experimental conditions, including time points and exposure conditions, taking into account possible metabolism, bioaccumulation and/or physical sequestration processes. All the fractions (i.e., medium, cells, plastic and matrix-bound fractions) were collected, at the first and last day of treatment, at different time points (i.e., 1, 3, 6, 24 h) selected on the basis of the intrinsic features of the compound and the cellular model. At each time point, the medium was transferred into amber glass vials and stored at −80 °C until HPLC analysis. Cells were washed twice with PBS (2 mL/well); to avoid dehydration of the cells, an aliquot of PBS was kept in each well. PBS was then removed, cells were scraped from the wells in 250 μL MeOH, additional 100 μL MeOH were added for washing and all the content was transferred into amber glass vials. The same procedure was applied also to the wells used for measuring matrix-bound material (without cells). Cells were then sonicated until they were fully homogenized (about 15 min). All fractions, including DMSO from control wells and MeOH used to measure possible plastic binding, were stored at −80 °C until HPLC analysis. Four biological replicates were carried out.
All samples from kinetic experiments were analysed using high-performance liquid chromatography (HPLC), as previously described, to quantify CPF and its metabolites. Prior to analysis, one volume of the collected medium samples was mixed with three volumes of MeOH. All the mixtures, including cell and matrix-bound samples, were vortexed for 30 s and then centrifuged (Eppendorf 5417R; 4 °C, 2500 rpm) for 10 min. Preliminary assays were conducted to evaluate CPF and its metabolite recovery after the solvent extraction procedure from each type of sample. […] Plastic-bound fraction was injected as such.
The HPLC system included a PerkinElmer Series 200 analytical pump, a Restek™ Pinnacle ODS Amine C18 column, a PerkinElmer LC 235 Diode Array Detector and the PerkinElmer Totalchrom™ 3.1.2 software for data acquisition and evaluation. For analysing CPF, CPFO and TCP, a gradient elution was applied at a flow rate of 1.0 mL/min, starting at 80:20 % methanol /buffer (Tris /HCl 50 mM EDTA 1 mM pH 7.4) and reaching after 4 min a percentage of 70:30 (v/v), respectively, maintained for 16 min. Then, the gradient returned to the initial concentration before the next sample was injected.

[2] = cited from earlier work
[3] = prenatal exposure to CPF; cited from earlier work

Oc1nc(Cl)c(Cl)cc1Cl [TCP, 3,5,6-trichloro-2-pyridinol]
TCP in the intracellular compartment or adsorbed to the plastic ([1]; any time point): No TCP was detectable
TCP present in the medium ([1]; first day of treatment with 21 μM CPF): 6–18%
TCP present in the medium ([1]; last day of treatment with 21 μM CPF): 7–14%

CCCCc1oc2ccccc2c1C(=O)c1cc(I)c(OCCN(CC)CC)c(I)c1 [amiodarone, reference compound]
log Kow [2]: 7.6

CCOP(=O)(O)OCC [diethylphosphate]
level in human postpartum meconium [3]: 0.80 to 3.20 µg/g

CCOP(O)(=S)OCC [diethylthiophosphate]
level in human postpartum meconium [3]: 2.0 to 5.6 µg/g

chlorpyrifos-oxon [CPFO]
CPFO adsorbed to the plastic ([1]; any time point): no CPFO adsorbed to the plastic was detectable
CPFO detection ([1]; last day of treatment): no longer detectable
